Assay results reported in PubChem BioAssay AID2060611 (Molecular Pharmacology Branch, DTP, NCI, 2025).
Values joined by “and” are separate entries in the source; they are usually repeats but may differ in a detail not shown here. Identical values can stand only once. One block for each compound: values may come before it.

Tested on: 628569-122-R-J1-PDC complex spheroid viability
Assay: Anticancer human tumor 628569-122-R-J1-PDC patient-derived head and neck squamous carcinoma cell line growth inhibition [CLK]
Conditions: for viability, T/C: stronger effect = lower value
Description: A high-throughput screen of multi-cell type tumor spheroids was designed to identify active combinations of […] and targeted small molecules. Complex spheroids include a stromal component modeled by human endothelial cells (HUVEC) and fibroblasts modeled by human mesenchymal stem cells (MSCs). The concentration ranges selected for each drug and investigational agent were based upon clinically achievable concentrations if the clinical Cmax of the agent was known.
Compounds. The drugs and investigational agents: cirtuvivint (SM08502; NSC835563), CC-671 (NSC850746), vemurafenib (NSC761431), tapotoclax (NSC804041), sotorasib (NSC818433), adagrasib (NSC831453), MRTX-1133 (NSC836407), BAY2416964 (NSC825713), copanlisib (NSC816437), inavolisib (NSC800729), abemaciclib (NSC768073), osimertinib (NSC779217), entinostat (NSC756642), eltanexor (KPT-8602, NSC794443), venetoclax (NSC766270), ceralasertib (NSC777638), bortezomib (NSC756655), olaparib (NSC753686), talazoparib (NSC767125), alisertib (NSC759677), peposertib (NSC802822), gemcitabine (NSC613327), 5-fluorouracil (NSC19893), SN-38 (NSC673596), oxaliplatin (NSC266046), paclitaxel (NSC125973), and doxorubicin (NSC123127), were obtained from the National Cancer Institute (NCI) Developmental Therapeutics Program Chemical Repository. The FDA-approved anticancer drug set is available from the Developmental Therapeutics Program at https://dtp.cancer.gov/organization/dscb/obtaining/available plates.htm. […] The stock solutions were prepared in dimethyl sulfoxide (DMSO, Sigma-Aldrich, St. Louis, MO, cat. D2650), except for the platinum complexes which were prepared in saline (Quality Biological, Gaithersburg, MD, cat. 114-055-101), at 800-fold the tested concentration and stored at -70 degrees C prior to their use. All drugs and investigational agents were tested over a range starting from a high concentration at or near the clinical Cmax and decreasing in half-log increments. If the clinical Cmax for an agent had not been determined, the highest concentration tested was 10 microM.
Cell Culture. All cells were maintained in an incubator at 37 degrees C and 5% CO2 with 95% humidity. The PDC lines were cultured according to standard operating procedures established by the NCI PDMR. Briefly, all PDCs were thawed and cultured in Matrigel-coated flasks prepared with a working solution of 1X Ham's F-12 nutrient mix, without supplementation (Invitrogen, Waltham, MA, cat. 11765054), 100 U/mL penicillin-streptomycin (Invitrogen, cat. 15140122), and 2.5% Matrigel (Corning Inc., Corning, NY, cat. 354248) for the first three passages. The 947758-054-R-J2-PDC line was cultured in 6B/Colon 1A media, which includes advanced DMEM/F-12 (Thermo Fisher Scientific, cat. 12634028), 10 mM HEPES (Thermo Fisher Scientific, cat. 15630080), 1X GlutaMAX supplement (Thermo Fisher Scientific, cat. 35050061), 0.1 mg/mL primocin (InvivoGen, cat. ant-pm-2), 10% defined fetal bovine serum, heat inactivated (HyClone Laboratories Inc., cat. SH30070.03HI), 1.25 mM N-Acetyl-L-cysteine (Sigma-Aldrich, cat. A9165), 10 mM nicotinamide (Sigma-Aldrich, cat. N0636), 1X B-27 supplement (Thermo Fisher Scientific, cat. 17504044), 1X N-2 supplement (Thermo Fisher Scientific, cat. 17502048), and 10 microM Y-27632 dihydrochloride (Tocris Bioscience, cat. 1254). The 876862-298-R-J1-PDC was cultured in 6E media, which includes all 6B/Colon 1A media components plus 50% L-WRN conditioned media (ATCC, cat. CRL-3276), 50 ng/mL recombinant human EGF recombinant protein (hEGF; Thermo Fisher Scientific, cat. PHG0311), 10 ng/mL recombinant human fibroblast growth factor 10 (hGFG-10; PeproTech, cat. 100-26), 1 ng/mL recombinant human fibroblast growth factor 2 (hFGF-2; PeproTech, cat. 100-18B), and 1 µM prostaglandin E2 (PGE2; Tocris, cat. 2296). The 227483-062-R1-J1-PDC line was cultured in Panc media, containing all 6E components except hFGF-2, with the addition of 500 nM SB-431542 (Selleckchem, cat. S1067) and 10 nM gastrin (Tocris, cat. 3006). […]
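Also: spheroids exposed to agents for seven days before readout.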
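For viability, T/C in this document: 100% = DMSO vehicle control viability.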

SMILES: C=CC(=O)N1CCN(c2nc(=O)n(-c3c(C)ccnc3C(C)C)c3nc(-c4c(O)cccc4F)c(F)cc23)C(C)C1 (stereo not given) + CN1CCN(c2cc(C(=O)Nc3cc4cc(-c5cnn(C)c5)ccc4cn3)ccn2)CC1
IC50 (curve of first compound, second compound 0.0316 µM): > 10000 nM
IC50 (curve of first compound, second compound 0.1 µM): > 10000 nM
IC50 (curve of first compound, second compound 0.316 µM): < 31.6 nM
IC50 (curve of first compound, second compound 1 µM): < 31.6 nM
IC50 (curve of first compound, second compound 3.16 µM): < 31.6 nM
IC50 (curve of first compound, second compound 10 µM): < 31.6 nM
viability, T/C (second compound 0.0316 µM, first compound 0.0316 µM): 104%
viability, T/C (second compound 0.0316 µM, first compound 0.1 µM): 89.4%
viability, T/C (second compound 0.0316 µM, first compound 0.316 µM): 110%
viability, T/C (second compound 0.0316 µM, first compound 1 µM): 113%
viability, T/C (second compound 0.0316 µM, first compound 3.16 µM): 132%
viability, T/C (second compound 0.0316 µM, first compound 10 µM): 140%
viability, T/C (second compound 0.1 µM, first compound 0.0316 µM): 51.7%
viability, T/C (second compound 0.1 µM, first compound 0.1 µM): 65.7%
viability, T/C (second compound 0.1 µM, first compound 0.316 µM): 77.1%
viability, T/C (second compound 0.1 µM, first compound 1 µM): 81.3%
viability, T/C (second compound 0.1 µM, first compound 3.16 µM): 86.2%
viability, T/C (second compound 0.1 µM, first compound 10 µM): 71.4%
viability, T/C (second compound 0.316 µM, first compound 0.0316 µM): 32.5%
viability, T/C (second compound 0.316 µM, first compound 0.1 µM): 38.2%
viability, T/C (second compound 0.316 µM, first compound 0.316 µM): 41.5%
viability, T/C (second compound 0.316 µM, first compound 1 µM): 37.5%
viability, T/C (second compound 0.316 µM, first compound 3.16 µM): 51%
viability, T/C (second compound 0.316 µM, first compound 10 µM): 31.4%
viability, T/C (second compound 1 µM, first compound 0.0316 µM): 6.64%
viability, T/C (second compound 1 µM, first compound 0.1 µM): 5.37%
viability, T/C (second compound 1 µM, first compound 0.316 µM): 5.91%
viability, T/C (second compound 1 µM, first compound 1 µM): 5.6%
viability, T/C (second compound 1 µM, first compound 3.16 µM): 8.96%
viability, T/C (second compound 1 µM, first compound 10 µM): 6.5%
viability, T/C (second compound 3.16 µM, first compound 0.0316 µM): 9.3%
viability, T/C (second compound 3.16 µM, first compound 0.1 µM): 9.76%
viability, T/C (second compound 3.16 µM, first compound 0.316 µM): 6.13%
viability, T/C (second compound 3.16 µM, first compound 1 µM): 4.78%
viability, T/C (second compound 3.16 µM, first compound 3.16 µM): 5.85%
viability, T/C (second compound 3.16 µM, first compound 10 µM): 4.66%
viability, T/C (second compound 10 µM, first compound 0.0316 µM): 2.59%
viability, T/C (second compound 10 µM, first compound 0.1 µM): 1.73%
viability, T/C (second compound 10 µM, first compound 0.316 µM): 2.2%
viability, T/C (second compound 10 µM, first compound 1 µM): 1.51%
viability, T/C (second compound 10 µM, first compound 3.16 µM): 4.91%
viability, T/C (second compound 10 µM, first compound 10 µM): 3.2%

IC50 (curve of compound): 666 nM and 210 nM
SMILES: NC(=O)C(=Cn1cnc(-c2cc(C(F)(F)F)cc(C(F)(F)F)c2)n1)c1cncnc1
viability, T/C (compound 0.00949 µM): 71.1% and 74%
viability, T/C (compound 0.03 µM): 66.9% and 66.1%
viability, T/C (compound 0.0949 µM): 52.1% and 56.7%
viability, T/C (compound 0.3 µM): 63.8% and 49.3%
viability, T/C (compound 0.949 µM): 44.3% and 35.1%
viability, T/C (compound 3 µM): 41.7% and 33.4%

SMILES: CCc1c2c(nc3ccc(O)cc13)-c1cc3c(c(=O)n1C2)COC(=O)[C@]3(O)CC
viability, T/C (compound 0.00316 µM): 69.5% and 53%
viability, T/C (compound 0.01 µM): 50.6% and 38%
viability, T/C (compound 0.0316 µM): 50.3% and 45.5%
viability, T/C (compound 0.1 µM): 41.7% and 39%
viability, T/C (compound 0.316 µM): 35.8% and 39%
viability, T/C (compound 1 µM): 8.79% and 15.5%
